Structures can show the parent of a compound that is named as a salt.

For data set [1], the system named is mechanical hyperalgesia associated with STZ-induced diabetes. Nature of the data set: STZ-induced diabetes mechanical hyperalgesia, model of neuropathic pain (Randall-Selitto). The data set is classed as in vivo, rat. How it is done:
Painful diabetic neuropathy is one of the most common complications of insulin-dependent diabetes in man; in particular, diabetes can be associated with neuropathic pain which fails to be treated by classical analgesics. Streptozotocin (STZ)-induced diabetes in the rat has been increasingly used as a model of painful diabetic neuropathy to assess the efficacies of potential analgesic agents (C. Courteix, Pain 1993, 53, 81-8). A representative compound of the invention was tested for efficacy in reducing mechanical hyperalgesia associated with STZ-induced diabetes in the rat, according to the experimental model as described by the literature. Diabetes was produced with the injection of a single dose (75 mg/Kg i.p.) of STZ. In the following four weeks after the induction of diabetes the clinical symptoms (weight, body and skin temperature, motility and hyperglycemia) progressively developed by the animals, are strictly monitored.
After four weeks, the scores obtained in diabetic rats to various pain stimuli (in particular mechanical stimuli) were greater than those in normal rats, indicating hyperalgesia. The hyperalgesia induced by diabetes was evaluated using the Randall-Selitto method as above described, and quantitated using the analgesimeter. Also in this case, the difference in the mechanical pain threshold between the basal value (generally 230-250 g) and the one tolerated by the animals treated with the drug, is defined as mechanical hyperalgesia. The compound of the invention was administered i.p. (solution, Tween 80, 10% in saline) at different doses, and mechanical hyperalgesia was measured at the reported time, as maximum percent effect (MPE) which represents the difference (%) in pain threshold between the animals treated with the drug and the controls that received only the vehicle, compared with the weight borne by naïf non-diabetic controls. A 100% protection means that the diabetic animals treated with the compound can tolerate the same stimulus (weight) as the naïf non-diabetic animals. MPE higher than 100% means that the diabetic animal treated with the compound can tolerate stimuli (weight) higher than the control non-diabetic animals (hypoalgesia).
In Table 4, the effect of a representative compound of formula (I), in the above described model of neuropathic pain, is compared with some known pharmacological standards used for the clinical treatment of this pathology. In particular, from the MPE data at 0.5 hrs, the doses yielding a protection of 50% (ED50) and 100% (ED100) have been calculated.

Data set [2] concerns Zymosan-induced mechanical hyperalgesia. Nature of the data set: Zymosan-induced mechanical hyperalgesia (Randall-Selitto), model of inflammatory pain. It counts as in vivo, rat. How it is done:
In this model, typically a male Sprague-Dawley or Wistar rat (200-250 g) receives an interplantar injection of 3 mg/100 μl zymosan into one hind paw. A marked inflammation occurs in this hind paw. Drugs are administered orally for evaluation of efficacy, 30 min. before the inflammatory insult. […] The quantisation of the analgesic effect is achieved by an analgesimeter, which consists in applying to the inflamed paw an increasing weight (from 130-140 g up to 500 g). […] For each test compound, at least three doses were used, with 8 animals per group. Compounds of the invention were tested at 10, 20 and 40 mg/Kg.

In data set [3] the test system is CFA-induced prolonged inflammation. The data set is described as follows: CFA model of chronic inflammatory pain (Randall-Selitto). It counts as in vivo, rat. To be noted: for MPE 0.5 hrs / MPE 1.5 hrs / MPE 3 hrs: NE = not effective.
Data set [4] deals with T1, recombinant human aggrecanase 1 (ADAMTS-4) (Homo sapiens, UniProt O75173).
T1 construct: ADAMTS-4 aminoacids F213-A579 with C-terminal tag; purchased Invitek GmbH, Berlin
T1 sequence (O75173 213-579): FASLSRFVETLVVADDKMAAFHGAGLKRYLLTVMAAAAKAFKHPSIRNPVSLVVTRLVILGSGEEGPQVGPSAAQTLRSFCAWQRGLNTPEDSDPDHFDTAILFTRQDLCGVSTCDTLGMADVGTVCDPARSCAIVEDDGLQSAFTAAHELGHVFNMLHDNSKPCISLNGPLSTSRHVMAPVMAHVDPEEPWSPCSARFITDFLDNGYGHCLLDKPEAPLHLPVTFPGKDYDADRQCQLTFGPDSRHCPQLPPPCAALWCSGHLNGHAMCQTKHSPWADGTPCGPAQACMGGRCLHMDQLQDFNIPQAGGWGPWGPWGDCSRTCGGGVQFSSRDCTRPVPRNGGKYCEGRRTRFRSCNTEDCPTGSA
The data set is described as follows: InviLISA Aggrecanase activity assay, aggrecanase 1. To be noted: inhibitors tested at 10 μM final concentration. It counts as biochemical. On the procedure:
(§1) The InviLISA Aggrecanase activity assay (Invitek GmbH, Berlin) was used to screen and characterise aggrecanase inhibitors. The assay was carried out in two steps, according to Will et al. (Will H, Dettloff M, Bendzko P, Svenshnikov P, A Quantitative Assay for aggrecanase Activity; 2005, Journal of Biomolecular Techniques, 16 (4), 459-472). A recombinant fragment of human aggrecan interglobular domain (aggrecan-IGD; T331-G458) is first digested with aggrecanase. Proteolytic cleavage of the substrate releases an aggrecan peptide with the N-terminal sequence ARGSVIL (ARGSVIL-peptide), that was then quantified with two monoclonal anti-peptide antibodies (ELISA module). For precise calculation of product, ARGSVIL-peptide standard concentrations were run in parallel.
(§2) 1) Proteolysis of aggrecan-IGD by aggrecanase. Aggrecan-IGD was incubated with standard recombinant human aggrecanase 1 (ADAMTS-4 aminoacids F213-A579 with C-terminal tag) or standard recombinant human aggrecanase 2 (ADAMTS-5 aminoacids S262-G625 with C-terminal tag) in the absence (total enzymatic activity) or presence (modulated enzymatic activity) of inhibitors to be tested. Enzymes were pre-incubated with the inhibitors or the appropriate concentration of diluent as control (DMSO 0.25% final concentration in proteolysis), at 4° C. for 30 min prior to assaying their activity. Five microliters of mix enzyme-inhibitor were added to the substrate (0.1 μM final concentration) in a total volume of 100 μL and incubated for 15 minutes at 37° C. The reaction was terminated with EDTA-containing buffer. The inhibitors were tested at 10 μM final concentration and compounds achieving ≧50% inhibitory effect were evaluated for IC50 calculation, in a range generally extended from 0.1 to 10 μM final concentration.
(§3) 2) Aggrecan peptide ELISA. ARGSVIL-peptide standard, proteolytic digestion of Aggrecan-IGD with standard aggrecanases and test samples were incubated in microtiter wells pre-coated with anti-ARGSVIL-neoepitope antibody. ARGSVIL-peptide is bound to the coated antibody, while other components are removed by washing and aspiration. The bound ARGSVIL-peptide was detected with a second peroxidase-labelled antibody. Any excess of the conjugate was removed by washing and aspiration. The amount of peroxidase bound to different wells was determined in reactions with peroxidase substrate TMB. The reactions are stopped by addition of sulphuric acid solution and absorbance is read at 450 nm in a microtiter plate spectrophotometer.

Data set [5] deals with T2, recombinant human aggrecanase 2 (ADAMTS-5) (Homo sapiens, UniProt Q9UNA0).
T2 construct: ADAMTS-5 aminoacids S262-G625 with C-terminal tag; purchased Invitek GmbH, Berlin
T2 sequence (Q9UNA0 262-625): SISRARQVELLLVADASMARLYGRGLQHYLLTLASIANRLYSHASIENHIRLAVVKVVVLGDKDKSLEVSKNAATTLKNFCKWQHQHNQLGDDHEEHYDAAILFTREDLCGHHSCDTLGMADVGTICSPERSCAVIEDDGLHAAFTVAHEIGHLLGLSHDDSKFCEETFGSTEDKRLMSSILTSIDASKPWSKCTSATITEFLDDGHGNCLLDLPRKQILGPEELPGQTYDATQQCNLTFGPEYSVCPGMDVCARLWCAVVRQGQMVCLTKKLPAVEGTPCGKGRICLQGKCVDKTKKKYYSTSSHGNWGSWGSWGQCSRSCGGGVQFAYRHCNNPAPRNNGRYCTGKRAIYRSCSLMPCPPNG
Nature of the data set: InviLISA Aggrecanase activity assay, aggrecanase 2. It counts as biochemical. To be noted: inhibitors tested at 10 μM final concentration. How it is done: as §1, §2, §3

Setting [6] is: 10 mg/Kg IP, NE = not effective.
Setting [7] is: 30 mg/Kg IP, NE = not effective.

The term melting point denotes the temperature of the solid-liquid transition. Molecule `N=C(CC1CC1)Nc1ccc2oc(-c3ccc(-n4ccnc4)cc3)c(O)c(=O)c2c1` (as salt: hydrochloride) (hydrate or solvate) [Example 6, 2-[(4-imidazol-1-yl)-phenyl]-3-hydroxy-6-[(1-iminoethyl-2-cyclopropyl)amino]-4H-1-benzopyran-4-one dihydrochloride monohydrate] came in with a melting point of 249.1 to 251.1 °C.

As to `COc1ccc(-c2oc3ccc(NC(C)=N)cc3c(=O)c2O)cc1` (as salt: hydrochloride) (hydrate or solvate) [Example 12, 2-(4-methoxyphenyl)-3-hydroxy-6-[(1-iminoethyl)amino]-4H-1-benzopyran-4-one hydrochloride monohydrate], the melting point is 260.1 to 261.1 °C.

For the molecule `CC(=N)Nc1ccc2oc(-c3ccccc3)cc(=O)c2c1` (as salt: hydrochloride) [Example 1, 2-phenyl-6-[(1-iminoethyl)amino]-4H-1-benzopyran-4-one hydrochloride], the melting point was in the range of 278.2 to 278.8 °C.

With `CC(=N)Nc1ccc2oc(-c3ccc4c(c3)OCO4)cc(=O)c2c1` (as salt: hydrochloride) [Example 4, 2-(benzo[1,3]dioxol-5-yl)-6-[(1-iminoethyl)amino]-4H-1-benzopyran-4-one hydrochloride], the melting point is 272.7 to 273.3 °C.

On to `CC(=N)Nc1ccc2oc(-c3ccc(-n4ccnc4)cc3)c(O)c(=O)c2c1` (as salt: hydrochloride) [Example 5, 2-[(4-imidazol-1-yl)-phenyl]-3-hydroxy-6-[(1-iminoethyl)amino]-4H-1-benzopyran-4-one hydrochloride], for which the melting point lay within 311.7 to 312.1 °C.

In turn, `CC(=N)Nc1ccc2oc(-c3cccc(-n4ccnc4)c3)c(O)c(=O)c2c1` (as salt: hydrochloride) [Example 8, 2-[(3-(imidazol-1-yl)-phenyl]-3-hydroxy-6-[(1-iminoethyl)amino]-4H-1-benzopyran-4-one dihydrochloride] registered a melting point of 281 to 281.5 °C.

`N=C(CC1CC1)Nc1ccc2oc(-c3ccc(O)cc3)c(O)c(=O)c2c1` (as salt: hydrochloride) [Example 11, 2-(4-hydroxyphenyl-3-hydroxy-6-[(1-iminoethyl-2-cyclopropyl)amino]-4H-1-benzopyran-4-one hydrochloride]: the melting point was 281 to 281.5 °C.

The molecule `CC(=N)Nc1ccc2oc(-c3ccc4c(c3)CCO4)c(O)c(=O)c2c1` (as salt: hydrochloride) [Example 15, 2-(dihydrobenzofuran-5-yl)-3-hydroxy-6-[(1-iminoethyl)amino]-4H-1-benzopyran-4-one hydrochloride] had a melting point of 291 to 292 °C.

In general, ED50 refers to the dose that gives a 50% effect, or the effect in half of the subjects. What is called inhibition is the percentage by which the read-out fell short of the control. Consider `CC(=N)Nc1ccc2oc(-c3ccccc3)cc(=O)c2c1` [Example 1, 2-phenyl-6-[(1-iminoethyl)amino]-4H-1-benzopyran-4-one hydrochloride], for which the “MPE 0.5 hrs” value is reported as 74% in data set [1] (3 mg/Kg IP, NE = not effective); 109% in data set [1] (setting [6]); 113% in data set [1] (setting [7]); 30% in data set [3] (3 mg/Kg IP); 62% in data set [3] (10 mg/Kg IP); 261% in data set [3] (30 mg/Kg IP). The “MPE 1.5 hrs” value was found to be 25% in data set [1] (3 mg/Kg IP, NE = not effective); 54% in data set [1] (setting [6]); 39% in data set [1] (setting [7]); 50% in data set [3] (3 mg/Kg IP); 39% in data set [3] (10 mg/Kg IP); 190% in data set [3] (30 mg/Kg IP). In addition, the “MPE 3 hrs” value turned out to be 39% in data set [1] (setting [7]), 40% in data set [3] (3 mg/Kg IP) and 37% in data set [3] (30 mg/Kg IP). Also, in data set [1] (setting [7]), the “MPE 6 hrs” value came out at 31%. Further, the protection entry in data set [1] (at the doses of 10 and 30 mg/kg) is on record as “higher than 100%”. The “efficacy in STZ neuropathic pain paradigm” value in data set [1] (rat, in vivo) is “high efficacy”. The median effective dose (ED50) in data set [2] (Rattus norvegicus, 4 h, read-out: ED50 4 hrs) amounted to 7.9 mg/kg; in data set [3] (Rattus norvegicus, ip, 0.5 h, read-out: ED50 0.5 hrs), 4.86 mg/kg. Moreover, the “ED100 4 hrs” value in data set [2] (rat, OS, 4 hrs after zymosan, NC = not calculable) is reported as 19 mg/kg. Further, the “ED100 0.5 hrs” value in data set [3] (IP, calculated from the MPE data at 0.5 hrs) is recorded as 8.06 mg/kg. For the same molecule, the inhibition at 10 µM in data set [4] was determined as 10%; in data set [5], 30%.

The values above are taken from patent US8372866B2, “2-aryl and 2-heteroaryl 4H-1-benzopyran-4-one-6-amidino derivatives, new pharmacological agents for the treatment of arthritis, cancer and related pain” (Rottapharm S.p.A., priority 2008, dated 2013).
